Experimental data: US7683168B2, “Compositions of novel opioid compounds and method of use thereof” (priority 2005, dated 2010)

Columns and labels:
rat analgesia = type: in vivo
mouse vas deferens = assay: electrically stimulated mouse vas deferens (MVD) ED50; type: cell-based; conditions: ED50, inhibition of electrically induced contractions
[1] = tested on: tail-pinch antinociception in mice; conditions: in vivo, iv, 10 mg/kg
κ opioid receptor = biological target: T1, κ opioid receptor (Cavia porcellus, UniProt P41144); assay: radioligand binding, κ opioid receptor, guinea pig cerebellum; conditions: tritium-labeled U69593
T1 construct: tissue Pel-Freeze Biological Inc. (Rogers, Ark.); host or cells: guinea pig cerebellum
T1 sequence (P41144 whole entry): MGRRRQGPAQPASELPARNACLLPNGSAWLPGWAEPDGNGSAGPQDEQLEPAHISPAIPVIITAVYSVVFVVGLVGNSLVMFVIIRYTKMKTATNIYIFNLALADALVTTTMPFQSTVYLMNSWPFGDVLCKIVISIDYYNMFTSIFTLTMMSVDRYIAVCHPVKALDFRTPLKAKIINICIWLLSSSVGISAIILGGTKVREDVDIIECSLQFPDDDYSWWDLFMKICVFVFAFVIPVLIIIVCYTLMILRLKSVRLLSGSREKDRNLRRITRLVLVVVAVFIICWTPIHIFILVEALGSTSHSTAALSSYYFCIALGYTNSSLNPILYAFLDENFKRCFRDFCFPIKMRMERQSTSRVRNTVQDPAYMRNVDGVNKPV

δ opioid receptor = biological target: T2, δ opioid receptor (Rattus norvegicus, UniProt P33533); assay: radioligand binding, δ opioid receptor, rat brain membranes; conditions: cell marked (rat), tritium-labeled Deltorphin II
T2 construct: tissue Pel-Freeze Biological Inc. (Rogers, Ark.); host or cells: rat whole brain
T2 sequence (P33533 whole entry): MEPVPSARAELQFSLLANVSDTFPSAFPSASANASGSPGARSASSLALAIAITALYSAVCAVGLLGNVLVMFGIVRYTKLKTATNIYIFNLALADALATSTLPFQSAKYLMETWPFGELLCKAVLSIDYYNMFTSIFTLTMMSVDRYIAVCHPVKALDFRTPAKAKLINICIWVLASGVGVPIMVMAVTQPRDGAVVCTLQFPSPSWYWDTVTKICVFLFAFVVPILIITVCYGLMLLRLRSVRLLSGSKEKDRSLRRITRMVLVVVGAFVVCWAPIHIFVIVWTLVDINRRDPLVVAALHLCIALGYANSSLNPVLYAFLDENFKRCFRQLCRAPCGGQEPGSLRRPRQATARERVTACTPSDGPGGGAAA

[2] = tested on: seizure-like convulsions in mice; assay: mouse seizure-like convulsions; type: in vivo; conditions: 10 mg/kg IV
In short: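 Male CD-1 mice (Charles River, Raleigh, N.C.) of 20-25 g were dosed and watched for one hour to detect seizure-like convulsions mediated by central delta receptors. An event was counted when clonic or tonic/clonic muscle movements involved the whole body, usually followed by brief catalepsy, judged by no attempt to withdraw front paws from a bar 2-3 inches above the floor.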

μ opioid receptor = biological target: T3, μ opioid receptor (Rattus norvegicus, UniProt P33535); assay: radioligand binding, μ opioid receptor, rat brain membranes; conditions: cell marked (rat), tritium-labeled DAMGO
T3 construct: tissue Pel-Freeze Biological Inc. (Rogers, Ark.); host or cells: rat whole brain
T3 sequence (P33535 whole entry): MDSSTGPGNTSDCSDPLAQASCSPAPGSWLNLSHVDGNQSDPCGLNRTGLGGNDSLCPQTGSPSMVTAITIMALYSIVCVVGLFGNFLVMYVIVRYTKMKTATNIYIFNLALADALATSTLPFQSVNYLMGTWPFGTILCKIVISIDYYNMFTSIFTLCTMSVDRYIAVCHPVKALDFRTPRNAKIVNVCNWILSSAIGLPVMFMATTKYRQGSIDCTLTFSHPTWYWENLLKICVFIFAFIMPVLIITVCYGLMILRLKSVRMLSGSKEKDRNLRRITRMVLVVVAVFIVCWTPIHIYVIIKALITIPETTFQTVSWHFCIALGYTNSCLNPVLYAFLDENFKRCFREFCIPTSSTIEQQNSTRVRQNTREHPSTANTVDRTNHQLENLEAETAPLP

guinea pig ileum = assay: electrically stimulated guinea pig ileum (GPI) ED50; type: cell-based; conditions: Cavia porcellus; ED50, inhibition of electrically induced contractions
Description: Further the compounds of formula (1) were evaluated for in vitro opioid receptor activity in various receptor systems, including mouse vas deferens (Mouse Vas Deferens ED50), and guinea pig ileum (Guinea Pig Ileum ED50). The assay procedures used for such determinations of receptor activity are set out below.
Intact ileums (about 3 cm length) were removed from guinea pig and suspended with 1 g of tension in a bath chamber as described for the vasa deferentia. The ileums were stimulated with electrical square-wave pulses of 0.1-Hz, 1 msec pulse duration at supramaximal voltage.
The ED50 values were extrapolated from curves showing the dose concentration plotted against the response (J. A. H. Lord, A. A. Waterfield, J. Hughes, H. W. Kosterlitz, Nature 267, 495, (1977)).

## C=CCN1C[C@H](C)N(C(c2cccc(O)c2)c2cccc(C(=O)N3CCCN(C)CC3)c2)C[C@H]1C (some centres unmarked)
Rat analgesia
  rat analg.: no rat analg.
Mouse vas deferens
  EC50: 26.3 nM
[1]
  mouse TP % MPE: 0% 10 mg/kg IV (mouse TP- 54% MPE; no rat analg.)
κ opioid receptor
  Ki: 1.93 nM
δ opioid receptor
  Ki: 5.45 nM
[2]
  Seiz.: 0%
μ opioid receptor
  Ki: 1.58 nM

## CCOC(=O)CCN1CCCN(C(=O)c2cccc([C@H](c3cccc(O)c3)N3C[C@@H](C)N(Cc4ccccc4)C[C@@H]3C)c2)CC1
Guinea pig ileum
  EC50: 836 nM
Mouse vas deferens
  EC50: 1.5 nM
[1]
  mouse TP % MPE: 80% 10 mg/kg IV (42% MPE mouse TP)
κ opioid receptor
  Ki: 2.98 nM
δ opioid receptor
  Ki: 1.2 nM
[2]
  Seiz.: 80% 10 mg/kg IV (42% MPE mouse TP)
μ opioid receptor
  Ki: 0.75 nM
